In PubChem BioAssay AID624254 (Broad Institute, 2012):
Active and inactive are the calls of the source. The rule behind the calls is not given here.

Target: not listed separately
Test: Quorum luxo inducers, light production, v cholerae bh1651 luxod47e, confirmatory dose response (AID 624254)
Settings: V. cholerae BH1651 luxOD47E, luciferase light induction, 6 h; at 50 µM (top of the series)

| SMILES | activation (light increase) |
| --- | --- |
| C=CCNC(=O)CCCOc1ccc(C)cc1 | inactive |
| O=C(NCC(F)(F)F)Nc1ncccn1 | inactive |
| Cc1ccc(SCc2nc(-c3cccnc3)no2)cc1 | inactive |
| Cn1cnc(S(=O)(=O)Nc2ccccc2)c1 | inactive |
| Cc1cccc(C(=O)NCC(c2cccs2)N2CCOCC2)c1 (stereo not given) | inactive |
| CCc1sc(N(C(=O)Cc2ccccc2)c2cccc(F)c2)nc1-c1ccc(C)cc1 | inactive |
| Cc1cc(C(=O)CSc2nnc(-c3ccco3)o2)c(C)n1CC1COc2ccccc2O1 (stereo not given) | inactive |
| COc1ccc(-c2cc(CCCC(=O)NCCc3cc(OC)ccc3OC)no2)cc1 | inactive |
| Cc1ccc(S(=O)(=O)NCCC(=O)O)cc1 | inactive |
| Cc1cccc(NC(=O)CS(=O)(=O)c2cn(C)c3ccccc23)c1C | inactive |
| Cc1nc(=O)c(-c2ccccc2)c(C)n1CCCCCC(=O)O | inactive |
| CNC(=O)c1cc2cc(OC)ccc2n1CCN(Cc1ccccc1)Cc1ccccc1 | inactive |
| O=C(CNc1cc(S(=O)(=O)N2CCOCC2)ccc1N1CCCC1)Nc1ccc(Cl)cc1 | inactive |
| CC(=O)Nc1ccc(S(=O)(=O)NCCC(=O)OCC(=O)c2cc(C)ccc2C)cc1 | inactive |
| CCc1ccc2c(c1)c1nnc(NN)nc1n2CC | inactive |
| CC1CCCN(C(=O)Cn2c(-c3nonc3N)nc3ccccc32)C1 (stereo not given) | inactive |
| CCN(CC1COc2ccccc2O1)C(=S)Nc1ccccc1 (stereo not given) | inactive |

| SMILES | activation (light increase) |
| --- | --- |
| CC(=O)c1ccc(Oc2cc(C)nc(NCc3ccccc3)n2)cc1 | inactive |
| CCCn1nnnc1NCc1ccc(SC)cc1 | inactive |
| COc1ccccc1NC(=O)COC(=O)c1oc2ccccc2c1C | inactive |
| O=C(CN1CCC(O)(c2cccc(C(F)(F)F)c2)CC1)NCCc1ccccc1 | inactive |
| CCc1cc(C(=O)N2CCN(C(=O)c3ccccc3)CC2)sc1C | inactive |
| Cc1ccccc1OCC(=O)OCC(=O)N1CCCc2ccccc21 | inactive |
| Cc1ccc(C(=O)OCC(=O)NC2CCCC2)cc1 | inactive |
| CCCc1cc(=O)[nH]c(Nc2ccc(N3CCCCC3)cc2)n1 | inactive |
| COc1ccc(C(CNC(=O)c2ccc(-c3cccc(C(F)(F)F)c3)o2)N2CCOCC2)cc1 (stereo not given) | inactive |
| Cc1ncc(S(=O)(=O)c2ccccc2)c(-c2ccc(Cl)cc2Cl)n1 | inactive |
| COc1ccccc1CCNC(=O)C(=O)NCCC1CCCCN1S(=O)(=O)c1cccs1 (stereo not given) | inactive |
| COc1ccc2[nH]c(=O)c(CN(C(=O)c3cccnc3)c3ccc(C)cc3)cc2c1 | inactive |
| COc1ccc(S(=O)(=O)N(C)C[C@H]2Oc3c(NC(=O)Nc4ccc5c(c4)OCO5)cccc3C(=O)N([C@H](C)CO)C[C@@H]2C)cc1 | inactive |
| Cn1cnc(S(=O)(=O)Nc2ccc(OC(F)(F)F)cc2)c1 | inactive |
| Cc1ccc(OCCNC(=O)c2ccc(C)o2)cc1 | inactive |
| O=C(O)C1C2CCC(C2)C1C(=O)Nc1cc(F)ccc1F (stereo not given) | inactive |

Target: V. cholerae BH1651 luxOD47E, luciferase light induction, 6 h
Test: as above
Settings: not given

| SMILES | AC50 |
| --- | --- |
| O=C(CCN1C(=O)c2ccccc2C1=O)N1CCN(C2c3ccccc3-c3ccccc32)CC1 | 209 nM |
| Cc1cc(Oc2ccc(C#N)cc2)nc(N2CCOCC2)n1 | 208 nM |
| Cc1ccc(C(=O)OCC(=O)NCC(F)(F)F)cc1C | 2410 nM |
| C[C@H](CO)N1C[C@H](C)[C@@H](CN(C)S(=O)(=O)c2ccccc2)Oc2c(NC(=O)Nc3ccc(F)cc3)cccc2C1=O | 1910 nM |
| COCc1[nH]nc2c1C1(CCC3(CC1)OCCO3)C(C#N)=C(N)O2 | > 50000 nM (inactive) |
| Cc1cccc(-c2cc3nc4c(c(N5CCC6(CC5)OCCO6)n3n2)CCCC4)c1 | > 50000 nM (inactive) |
| Cc1cc(C)cc(NC(=O)Cn2ncn3c(cc4ccccc43)c2=O)c1 | 7050 nM |
